In ChEMBL document CHEMBL3301361, “Experimental in vitro DMPK and physicochemical data on a set of publicly disclosed compounds”:
In brackets after ≈: the same amount, converted by molar mass.

What was measured:
in vitro [1] = conditions: SD, HW or BN, rat, plasma
in vitro [2] = conditions: mouse, plasma
in vitro [3] = conditions: human, plasma
physchem [4] = conditions: octan-1-ol/water, pH 7.4, LogD7.4
physchem [5] = conditions: pH 7.4 buffer

| fraction unbound at 5 h (in vitro [1]) | fraction unbound at 5 h (in vitro [2]) | fraction unbound at 5 h (in vitro [3]; PPB) | logD (physchem [4]) | solubility thermodynamic (physchem [5]) [µM] | Structure (SMILES) | fraction unbound at 5 h (in vitro [3]) |
| --- | --- | --- | --- | --- | --- | --- |
| 0.139 | 0.151 | 0.139 | – | – | Cc1cc(C)c(S(=O)(=O)NCc2ccncc2)c(C)c1 | – |
| 0.0139 | 0.0179 | – | – | – | COc1ccc(S(=O)(=O)N2CC(C)N(S(=O)(=O)c3ccc(OC)cc3)CC2C)cc1 (centres undefined) | 0.0035 |
| 0.0872 | 0.0854 | – | – | – | NC(=O)c1ccc(-n2nnnc2Oc2ccc(Br)cc2)cc1 | – |
| – | 0.013 | 0.0041 | 1.6 | – | Cc1cc(-c2ccc(-c3nc4ccncc4c(O)c3C#N)cc2)ccn1 | – |
| 0.0205 | 0.0149 | – | – | – | COc1cc(Nc2nc3c(c(COC4CCCC4)n2)COCC3)ccc1-n1cnc(C)c1 | – |
| 0.11 | 0.0928 | 0.299 | – | – | CCOc1cc(CN2CCC(Nc3nc4cc(S(N)(=O)=O)ccc4o3)CC2)cc(OCC)c1N | – |
| – | 0.005 | 0.001 | 3.1 | – | C[C@H](c1ccc(F)cc1CCCC(=O)O)N(c1cc(F)ccc1F)S(=O)(=O)c1ccc(Cl)cc1 | – |
| 0.119 | 0.0818 | 0.22 | – | – | CC(O)(C(=O)Nc1ccc(S(=O)(=O)N2CCCC2)cc1)C(F)(F)F (centres undefined) | – |
| 0.139 | 0.16 | 0.139 | – | – | c1cncc(Nc2ncc(-c3ccncn3)c(-c3ccco3)n2)c1 | – |
| 0.0011 | 0.0021 | – | – | – | O=c1[nH]c2cc(C(F)(F)F)ccc2n1-c1cc(C(F)(F)F)ccc1O | – |
| 0.0358 | 0.0251 | – | – | – | Cc1nc(-c2c(F)cc(Cl)cc2-c2cnc([C@@H](C)NC(=O)[C@@](C)(O)C(F)(F)F)c(F)c2)no1 | – |
| – | 0.0171 | 0.0099 | 3.6 | – | C[C@H](NC(=O)Cc1cc(F)cc(F)c1)C(=O)NC1C(=O)N(C)c2ccccc2-c2ccccc21 (some centres undefined) | – |
| 0.072 | 0.371 | – | – | – | C1Cc2[nH]nc(-c3nnn[nH]3)c2C1 | – |
| 0.0006 | 0.0007 | – | – | – | CCCn1c(=O)[nH]c2nc(-c3ccc(S(=O)(=O)N4CCN(Cc5ccc(Cl)cc5)CC4)cc3)[nH]c2c1=O | – |
| 0.028 | 0.0581 | – | – | – | COc1cc(C(C)C)c(Oc2cnc(NC(CO)CO)nc2N)cc1I | – |
| 0.792 | 0.858 | 0.803 | – | – | CC(C)[C@H](O)C(=O)N[C@@H](C)C(=O)N[C@@H]1C(=O)N(C)CCc2ccccc21 | – |
| 0.0018 | 0.0013 | – | – | – | c1ccc2nc(COc3ccc(-c4n[nH]cc4-c4ccncc4)cc3)ccc2c1 | – |
| 0.0099 | 0.0081 | – | – | – | COc1ccc(C2(c3ccc(F)c(-c4cccnc4F)c3)N=C(N)N(C)C2=O)cc1C (centres undefined) | – |
| 0.0909 | 0.11 | – | – | – | CCC(CC)[C@@H](CO)NS(=O)(=O)c1ccc(Cl)s1 [GSI-136] | – |
| 0.179 | 0.0075 | – | 2.52 | 63.1 (≈ 15.2 µg/mL) | CC(C)Cn1cnc2c(N)nc3ccccc3c21 [IMIQUIMOD] | – |
| 0.0017 | 0.0039 | – | – | – | Cn1cc(-c2ccncc2)c(-c2ccc(OCc3ccc4ccccc4n3)cc2)n1 [MARDEPODECT] | – |

| Structure (SMILES) | fraction unbound at 5 h (in vitro [1]) | fraction unbound at 5 h (in vitro [2]) | fraction unbound at 5 h (in vitro [3]; PPB) | logD (physchem [4]) | solubility thermodynamic (physchem [5]) [µM] | fraction unbound at 5 h (in vitro [3]) |
| --- | --- | --- | --- | --- | --- | --- |
| CCCN(c1cccc(C#N)c1)P(=O)(c1ccccc1)c1ccccc1 | 0.0633 | 0.0467 | – | – | – | 0.0056 |
| O=C1Nc2cc(C(F)(F)F)ccc2C1(O)c1cc(Cl)ccc1O (centres undefined) | 0.0111 | 0.0219 | – | – | – | 0.0149 |
| CC(C)Cc1c(C(=O)C(N)=O)c2c(OCC(=O)O)cccc2n1Cc1ccccc1 | 0.0187 | 0.0366 | – | – | – | 0.0313 |
| CCCCCCC(=O)CCCCCC/C=C/C[C@@H](O)[C@H](O)[C@@](N)(CO)C(=O)O [MYRIOCIN] | 0.028 | 0.062 | – | – | – | – |
